Laboratory results published in US12403144B2, “HECT E3 ligase inhibitors and uses thereof” (IFOM FONDAZIONE ISTITUTO FIRC DI ONCOLOGIA MOLECOLARE, priority 2019, dated 2025).
Structures can show the parent of a compound that is named as a salt.

Molecular target: T1, untagged HECT of NEDD4 wild-type (WT) (E3 ligase) (Homo sapiens, UniProt P46934)
T1 construct: untagged HECT of NEDD4 wild-type (WT) (E3 ligase); made in house
T1 sequence (P46934 519-900 isoform P46934-4 limits assumed): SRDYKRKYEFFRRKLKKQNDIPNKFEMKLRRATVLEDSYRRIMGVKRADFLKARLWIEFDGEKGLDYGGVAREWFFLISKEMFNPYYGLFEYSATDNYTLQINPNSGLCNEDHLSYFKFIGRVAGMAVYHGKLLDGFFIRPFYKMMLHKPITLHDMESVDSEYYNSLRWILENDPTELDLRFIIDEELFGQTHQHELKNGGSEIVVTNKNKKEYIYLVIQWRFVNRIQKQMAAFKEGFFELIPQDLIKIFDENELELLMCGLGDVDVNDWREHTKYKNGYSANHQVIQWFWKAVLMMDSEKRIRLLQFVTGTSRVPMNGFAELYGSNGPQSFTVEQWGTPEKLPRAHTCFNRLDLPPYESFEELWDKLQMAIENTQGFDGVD
Experiment: In vitro ubiquitination assay TR-FRET based (self-ubiquitination of NEDD4)
Type: biochemical
Conditions: at 11 μM; pre-incubated for 1 hour; AUC of 120 minutes kinetic; read-out: percentages of inhibition (NEDD4)
Method in brief: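 Mix of E1, His-UBE2D3 and untagged NEDD4 HECT (final 30, 350, 50 nM) with Eu-cryptate/Cy5/unlabelled ubiquitin in pH 7.6 Tris buffer, compounds (100–0.005 μM dilution series) pre-incubated 1 h, then started with ATP. 665/620 nm TR-FRET followed 120 min; % inhibition from AUC versus DMSO, no-ATP background.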

inhibition at 11 µM [%]	SMILES
> 50	CCOC(=O)/C=C/CNCCCCN1c2cc(Cl)ccc2C(=O)N(CCOCCOC)c2ccccc21 [Compound 86, Ethyl (E)-4-{[4-(3-chloro-10-[2-(2-methoxyethoxy)ethyl]-11-oxo-10,11-dihydro-5H-dibenzo[b,e][1,4]diazepin-5-yl)butyl]amino}but-2-enoate maleate]
> 50	CCOC(=O)/C=C/CNCCCCN1c2cc(Cl)ccc2C(=O)N(CCOCCOCCOC)c2ccccc21 [Compound 87, Ethyl (E)-4-{[4-(3-chloro-10-[2-[2-(2-methoxyethoxy)ethoxy]ethyl]-11-oxo-10,11-dihydro-5H-dibenzo[b,e][1,4]diazepin-5-yl)butyl]amino}but-2-enoate maleate]
> 50	C#CCOCCN1C(=O)c2ccc(Cl)cc2N(CCCCNC/C=C/C(=O)OCC)c2ccccc21 [Compound 88, Ethyl (E)-4-{[4-[3-chloro-10-[2-(prop-2-yn-1-yloxy)ethyl]-11-oxo-10,11-dihydro-5H-dibenzo[b,e][1,4]diazepin-5-yl)butyl]amino}but-2-enoate maleate]
> 50	C#CCOCCOc1ccc2c(c1)CCc1ccc(Cl)cc1N2CCCCN(C)C/C=C/C(=O)OC [Compound 89, Methyl (E)-4-{4-[7-chloro-2-(2-prop-2-ynoxyethoxy)-10,11-dihydro-5H-dibenzo[b,f]azepin-5-yl]-butyl-methyl-amino}-but-2-enoate maleate]
> 50	COCCOCCOC(=O)/C=C/CNCCCCN1c2ccccc2CCc2ccc(Cl)cc21 [Compound 93, 2-(2-Methoxy-ethoxy)-ethyl (E)-4-[4-(3-chloro-10,11-dihydro-dibenzo[b,f]azepin-5-yl)-butylamino]but-2-enoate maleate]
> 50	CN(C/C=C/C(=O)OCCOCCOCCOCCOCCOCCNC(=O)CCCC[C@@H]1SC[C@@H]2NC(=O)N[C@@H]21)CCCCN1c2ccccc2CCc2ccc(Cl)cc21 [Compound 95, 2-(2-{2-[2-(2-{2-[5-((3aS,4S,6aR)-2-Oxo-hexahydro-thieno[3,4-d]imidazol-4-yl)-pentanoylamino]-ethoxy}-ethoxy)-ethoxy]-ethoxy}-ethoxy)-ethyl (E)-4-{[4-(3-chloro-10,11-dihydro-dibenzo[b,f]azepin-5-yl)-butyl]-methyl-amino}but-2-enoate]
> 50	CCOC(=O)/C=C/CNCCCCN1c2ccc(OCCOC)cc2CCc2ccc(Cl)cc21 [Compound 97, Ethyl (E)-4-{4-[7-Chloro-2-(2-methoxy-ethoxy)-10,11-dihydro-5H-dibenzo[b,f]azepin-5-yl]-butylamino}-but-2-enoate maleate]
< 30	CCOC(=O)/C=C/CNCCCCN1c2ccc(OCc3ccccc3)cc2CCc2ccc(Cl)cc21 [Compound 101, Ethyl (E)-4-[4-(2-benzyloxy-7-chloro-10,11-dihydro-dibenzo[b,f]azepin-5-yl)-butylamino]-but-2-enoate maleate]
> 50	COCCOC(=O)/C=C/CNCCCCN1c2ccccc2CCc2ccc(Cl)cc21 [Compound 102, 2-methoxy-ethyl (E)-4-[4-(3-chloro-10,11-dihydro-dibenzo[b,f]azepin-5-yl)-butylamino]-but-2-enoate maleate]

Continued, molecule first:

SMILES	inhibition at 11 µM [%]
O=C(/C=C/CNCCCCN1c2ccccc2CCc2ccc(Cl)cc21)NOC1CCNCC1 [Compound 83, (E)-4-[4-(3-Chloro-10,11-dihydro-5H-dibenzo[b,f]azepin-5-yl)butylamino]-N-(4-piperidyloxy)-but-2-enamide dimaleate]	> 50
C#CCOCCOc1ccc2c(c1)CCc1ccc(Cl)cc1N2CCCCN(C)C/C=C/C#N [Compound 90, (E)-4-{4-[7-chloro-2-(2-prop-2-ynoxyethoxy)-10,11-dihydro-5H-dibenzo[b,f]azepin-5-yl]butyl-methyl-amino}but-2-enenitrile maleate]	> 50
C#CCOC(=O)/C=C/CNCCCCN1c2ccccc2CCc2ccc(Cl)cc21 [Compound 91, Prop-2-yn-1-yl (E)-4-[4-(3-chloro-10,11-dihydro-5H-dibenzo[b,f]azepin-5-yl)butylamino]but-2-enoate maleate]	> 50
C#CCOCCOC(=O)/C=C/CNCCCCN1c2ccccc2CCc2ccc(Cl)cc21 [Compound 92, 2-Prop-2-ynyloxy-ethyl (E)-4-[4-(3-chloro-10,11-dihydro-5H-dibenzo[b,f]azepin-5-yl)butylamino]but-2-enoate maleate]	> 50
CN(C/C=C/C(=O)OCCOCCOCCOCCOCCOCCOCCOCCNC(=O)CCCC[C@@H]1SC[C@@H]2NC(=O)N[C@@H]21)CCCCN1c2ccccc2CCc2ccc(Cl)cc21 [Compound 96, 2-(2-{2-[2-(2-{2-[2-(2-[5-((3aS,4S,6aR)-2-Oxo-hexahydro-thieno[3,4-d]imidazol-4-yl)-pentanoylamino]-ethoxy)-ethoxy]-ethoxy}-ethoxy)-ethoxy]-ethoxy}-ethoxy)-ethyl (E)-4-{[4-(3-chloro-10,11-dihydro-dibenzo[b,f]azepin-5-yl)-butyl]-methyl-amino} but-2-enoate]	> 50
CCOC(=O)/C=C/CNCCCCN1c2ccc(OCCOCCOC)cc2CCc2ccc(Cl)cc21 [Compound 98, Ethyl (E)-4-(4-{7-chloro-2-[2-(2-methoxy-ethoxy)-ethoxy]-10,11-dihydro-5H-dibenzo[b,f]azepin-5-yl}-butylamino)-but-2-enoate maleate]	> 50
CN(C/C=C/C#N)CCCCN1c2ccc(OCCOCc3cn(CCOCCOCCOCCNC(=O)CCCC[C@@H]4SC[C@@H]5NC(=O)N[C@@H]54)nn3)cc2CCc2ccc(Cl)cc21 [Compound 99, 5-((3aS,4S,6aR)-2-Oxo-hexahydro-thieno[3,4-d]imidazol-4-yl)-(2-{2-[2-(2-{4-[2-(7-chloro-5-{4-[((E)-3-cyano-allyl)-methyl-amino]-butyl}-10,11-dihydro-5H-dibenzo[b,f]azepin-2-yloxy)-ethoxymethyl]-[1,2,3]triazol-1-yl}-ethoxy)-ethoxy]-ethoxy}-ethyl)pentanamide]	> 50
C#CCOc1ccc2c(c1)CCc1ccc(Cl)cc1N2CCCCNC/C=C/C(=O)OCC [Compound 100, Ethyl (E)-4-[4-(7-Chloro-2-prop-2-ynyloxy-10,11-dihydro-dibenzo[b,f]azepin-5-yl)-butylamino]-but-2-enoate maleate]	> 50
